The species named for test [1] is Homo sapiens. Briefly: Inhibition of TCEP-treated human SOD1 A4V mutant aggregation at 50 uM measured after 24 hrs by thioflavin-T fluorescence assay relative to control.
The species named for test [2] is Homo sapiens. Briefly: Inhibition of TCEP-treated human SOD1 G85R mutant aggregation at 50 uM measured after 24 hrs by thioflavin-T fluorescence assay relative to control.
Test [3] is filed under the species Homo sapiens. Briefly: Inhibition of TCEP-treated human SOD1 G93A mutant aggregation at 50 uM measured after 24 hrs by thioflavin-T fluorescence assay relative to control.

Active and inactive are the calls of the source. The rule behind the calls is not given here.

What is called inhibition is the drop in the measured response relative to a control, in per cent. For the molecule `CCn1c2ccccc2c2cc(NC(=O)NNC(=O)Nc3ccc([N+](=O)[O-])cc3)ccc21`, the inhibition in the test filed under Homo sapiens [1] amounted to 55.3%; in the test listed under Homo sapiens [2], 43.1%; in the test listed under Homo sapiens [3] it was 48.2%.
The molecule `Nc1nc2ccc(OC(F)(F)F)cc2s1` yielded an inhibition in the test filed under Homo sapiens [1] of 9.88%. Also, the inhibition result in the test filed under Homo sapiens [2] and in the test listed under Homo sapiens [3] was “inactive” in each case.
`CCn1c2ccccc2c2cc(NC(=O)NNC(=S)Nc3ccc(OC(F)(F)F)cc3)ccc21`: the values for the inhibition in the test filed under Homo sapiens [1], in the test filed under Homo sapiens [2] and in the test filed under Homo sapiens [3] were 69.7%, 63.2% and 72.3%, respectively.
Turning to `CCn1c2ccccc2c2cc(NC(=O)NNC(=O)Nc3ccc(OC(F)(F)F)cc3)ccc21`, the inhibition stood at 47.1% in the test listed under Homo sapiens [1], 63.8% in the test filed under Homo sapiens [2] and 73.8% in the test listed under Homo sapiens [3].
On the same counts, the results for `CCn1c2ccccc2c2cc(NC(=O)NNC(=S)Nc3ccc(Cl)cc3)ccc21` are 61.1%, 58.3% and 76.4%.
For the molecule `CCn1c2ccccc2c2cc(NC(=O)NNC(=O)Nc3ccc(F)cc3)ccc21`, the inhibition in the test listed under Homo sapiens [1] worked out at 46.1%; in the test filed under Homo sapiens [2], 43.4%; in the test filed under Homo sapiens [3], 71.9%.
Regarding `CCn1c2ccccc2c2cc(NC(=O)NNC(=S)Nc3ccc([N+](=O)[O-])cc3)ccc21`, the inhibition in the test filed under Homo sapiens [1] came out at 60%; in the test listed under Homo sapiens [2], 64.4%; in the test filed under Homo sapiens [3] it was 72.6%.
Turning to `CCn1c2ccccc2c2cc(NC(=O)NNC(=O)Nc3ccccc3)ccc21`, the inhibition in the test listed under Homo sapiens [1] is 46.9%; in the test filed under Homo sapiens [2] it was 65.9%; in the test listed under Homo sapiens [3] it was 63.4%.
As to `CCn1c2ccccc2c2cc(NC(=O)NNC(=O)Nc3ccc(OC)cc3)ccc21`, the inhibition in the test filed under Homo sapiens [1] stood at 40.6%; in the test listed under Homo sapiens [2] it was 38.2%; in the test listed under Homo sapiens [3] it was 61.8%.
As to `CCn1c2ccccc2c2cc(NC(=O)NNC(=S)NCc3ccccc3)ccc21`, the inhibition in the test filed under Homo sapiens [1] worked out at 54.2%; in the test listed under Homo sapiens [2] it was 56.4%; in the test listed under Homo sapiens [3] it was 69.8%.
In the case of `CCn1c2ccccc2c2cc(NC(=O)NNC(=O)NCc3ccccc3)ccc21`, the inhibition in the test listed under Homo sapiens [1] was determined as 31.9%; in the test listed under Homo sapiens [2] it was 70.7%; in the test listed under Homo sapiens [3] it was 25.1%.
`CCn1c2ccccc2c2cc(NC(=O)NNC(=S)NCCc3ccccc3)ccc21`: the values for the inhibition in the test filed under Homo sapiens [1], in the test listed under Homo sapiens [2] and in the test filed under Homo sapiens [3] were 68.5%, 66.1% and 65.4%, respectively.
On the same counts, the results for `CCn1c2ccccc2c2cc(NC(=O)NNC(=S)Nc3ccc(OC)cc3)ccc21` are 58.8%, 70.6% and 72.5%.
As to `CCn1c2ccccc2c2cc(NC(=O)NNC(=O)NCCc3ccccc3)ccc21`, the inhibition in the test listed under Homo sapiens [1] amounted to 62.8%; in the test listed under Homo sapiens [2], 70%; in the test listed under Homo sapiens [3], 44.5%.
As to `CCn1c2ccccc2c2cc(NC(=O)NNC(=O)Nc3ccc(Cl)cc3)ccc21`, the inhibition in the test listed under Homo sapiens [1] stood at 59.3%; in the test filed under Homo sapiens [2], 63.3%; in the test listed under Homo sapiens [3], 33.9%.

The record behind these values is ChEMBL document CHEMBL6114970, “Development of carbazole-based molecules for inhibition of mutant hSOD1 protein aggregation in Amyotrophic Lateral Sclerosis” (Bioorg Med Chem, 2025).
